According to patent publication US12173212B2, “Design, synthesis, and photophysical properties of a novel NIR II dye for biological imaging and optoelectronic devices” (University of Mississippi, priority 2020, dated 2024):

Tests used:
[1] = Absorption spectra (Cary 5000 UV-Vis-NIR spectrophotometer, 1 cm quartz cell); format: physicochemical; settings: ring closed lactone form, FIG. 2
Protocol: (§1) All chemicals and solvents were purchased from commercial suppliers and used without further purification unless other-wise specified. ^1H NMR (500 MHz) and ^13C NMR ([…]) spectra were recorded in deuterated solvents on a Bruker ADVANCE 500 NMR Spectrometer. J values are expressed in Hz and quoted chemical shifts are in ppm downfield from tetramethylsilane (TMS) reference using the residual protonated solvents as an internal standard. The signals have been designated as follows: s (singlet), d (doublet), t (triplet), m (multiplets). High resolution mass spectra (HRMS) were deter-mined on Bruker-micrOTOF-Q II Mass Spectrometer. Absorption spectra were acquired using a Cary 5000 UV-Vis-NIR spectrophotometer in a 1 cm quartz cell. Fluorescence spectra were acquired using a Horiba QuantaMaster 8075-21 spectrofluorometer with xenon lamp excitation and liquid nitrogen cooled indium gallium arsenide solid state detector. […] The relative quantum yield of the rhodindolizine dye was calculated using a known technique. […] The absorbance point for the quantum yield was chosen because of similar overlap in the absorption spectra between the standard and the rhodindolizine dye. […]
(§2) Additionally, a range of solvent polarities were evaluated to access the polarity of RhIndz in the ground-state via absorption spectroscopy and in the excited-state via fluorescence spectroscopy (Table 6).

[2] = Fluorescence spectra (Horiba QuantaMaster 8075-21 spectrofluorometer, InGaAs detector); format: physicochemical; settings: closed spirolactone structure
Protocol: as §1, §2

Structure (SMILES): Cc1c(-c2ccccc2)c(-c2ccc3c(c2)Oc2cc(-c4c(-c5ccccc5)c(C)c5ccccn45)ccc2C32OC(=O)c3ccccc32)n2ccccc12 [RhIndz, 3′,6′-bis(1-methyl-2-phenylindolizin-3-yl)-3H-spiro[2-benzofuran-1,9′-xanthen]-3-one]
- absorption maximum [1]: 375 nm
- fluorescence of closed spirocyclic form [2]: non-fluorescent
